What is called inhibition is the relative decrease from the control value, in per cent. One may read the Tmax as the time from dosing to the highest level. A word on the Cmax: it is the maximum level reached in the sampled fluid or tissue. One may read the AUC(0-t) as the area under the concentration-time curve up to a stated or last time point. The low end stands for low exposure, the high end for high exposure. One may read the clearance as the rate of elimination divided by the concentration. Read a low clearance as a low capacity for elimination. What is called bioavailability is the share of a dose that reaches the circulation, judged against a reference dose that is usually intravenous. A high value points to good availability.

The test system of one series is RBL-2H3. Put plainly: Antiallergic activity against anti-DNP-IgE sensitized rat RBL-2H3 cells assessed as […] of degranulation by measuring beta-hexosaminidase release using P-nitrophenyl-N-acetyl-D-glucosamide as substrate at 0.04 uM measured after 1 hr by microplate reader relative to control. It is filed as functional.
Series [1] concerns the target Proto-oncogene tyrosine-protein kinase Src (Rattus norvegicus) (UniProt Q9WUD9). Nature of the series: Inhibition of Src phosphorylation in rat RBL-2H3 cells assessed as inhibition of Fc epsilonRI-mediated signal transduction by Western blot analysis. The series is classed as cell-based. The following applies: dose 8-200 nM. In general terms: Immunoblotting shows a protein as a band on a membrane.

For series [2], the target named is Tyrosine-protein kinase SYK (Rattus norvegicus) (UniProt Q64725). Nature of the series: Inhibition of Syk phosphorylation in rat RBL-2H3 cells assessed as inhibition of Fc epsilonRI-mediated signal transduction by Western blot analysis. The series is classed as cell-based. As to conditions: dose 8-200 nM.
Chain of Tyrosine-protein kinase SYK (Rattus norvegicus) (Q64725 whole entry, looked up): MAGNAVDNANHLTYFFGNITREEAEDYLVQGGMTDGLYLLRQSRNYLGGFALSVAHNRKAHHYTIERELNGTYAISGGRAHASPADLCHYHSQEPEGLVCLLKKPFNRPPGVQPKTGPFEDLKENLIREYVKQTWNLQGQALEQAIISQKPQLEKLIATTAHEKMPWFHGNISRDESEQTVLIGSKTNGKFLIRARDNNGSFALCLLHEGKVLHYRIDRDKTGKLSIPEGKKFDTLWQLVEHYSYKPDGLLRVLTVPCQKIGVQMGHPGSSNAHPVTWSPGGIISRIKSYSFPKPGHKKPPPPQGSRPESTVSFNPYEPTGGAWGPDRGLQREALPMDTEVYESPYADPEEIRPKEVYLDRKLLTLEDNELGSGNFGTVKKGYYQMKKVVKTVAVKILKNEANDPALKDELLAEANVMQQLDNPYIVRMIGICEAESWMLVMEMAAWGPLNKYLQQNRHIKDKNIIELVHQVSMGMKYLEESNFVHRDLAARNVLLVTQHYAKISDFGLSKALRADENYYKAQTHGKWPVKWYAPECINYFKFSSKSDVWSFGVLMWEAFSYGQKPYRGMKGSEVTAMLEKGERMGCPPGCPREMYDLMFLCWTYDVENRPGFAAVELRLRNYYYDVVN
A short description of series [3]: Tmax in BALB/c mouse at 20 mg/kg, po measured up to 24 hrs by LC-MS/MS analysis. The series is classed as ADME, organism-based. The following applies: in vivo.
A short description of series [4]: Cmax in BALB/c mouse at 20 mg/kg, po measured up to 24 hrs by LC-MS/MS analysis. The series is classed as ADME, organism-based. On the set-up: route oral, dose 20 mg/kg, time <=24. The following applies: in vivo.
Series [5] in a line: AUC (0 to t) in BALB/c mouse at 20 mg/kg, po measured up to 24 hrs by LC-MS/MS analysis. It is filed as ADME, organism-based. On the set-up: route oral, dose 20 mg/kg, time <=24. As to conditions: in vivo.
Series [6] in a line: Clearance in BALB/c mouse at 2 mg/kg, iv measured up to 24 hrs by LC-MS/MS analysis. The series is classed as ADME, organism-based. The following applies: in vivo.
The nature of series [7]: Oral bioavailability in BALB/c mouse at 20 mg/kg measured up to 24 hrs by LC-MS/MS analysis. It is filed as ADME, organism-based. The following applies: in vivo.
Series [8] has as its system Mus musculus. Nature of the series: Antiallergic activity against anti-DNP IgE sensitized passive systemic anaphylaxis-induced BALB/c mouse pulmonary allergic inflammation model assessed as by decrease in body temperature drop at 40 mg/kg, po measured every 5 mins for 60 mins. The series is classed as functional, organism-based.
The subject of series [9] is Mus musculus. Put plainly: Antiallergic activity against anti-DNP IgE sensitized house dust mite-induced BALB/c mouse pulmonary allergic inflammation model assessed as by reduction in serum total IgE level at 40 mg/kg, po measured every 5 mins for 60 mins. It is filed as functional, organism-based.
The nature of series [10]: Toxicity in anti-DNP IgE sensitized BALB/c mouse assessed as body weight loss at 40 mg/kg, po. The series is classed as organism-based. The following applies: in vivo.
Series [11] in a line: Toxicity in anti-DNP IgE sensitized BALB/c mouse assessed as piloerection at 40 mg/kg, po. The series is classed as organism-based. The following applies: in vivo.
Series [12] in a line: Toxicity in anti-DNP IgE sensitized BALB/c mouse assessed as vomiting at 40 mg/kg, po. It is filed as organism-based. The following applies: in vivo.
A short description of series [13]: Toxicity in anti-DNP IgE sensitized BALB/c mouse assessed as diarrhea at 40 mg/kg, po. It is filed as organism-based. As to conditions: in vivo.
A short description of series [14]: Toxicity in anti-DNP IgE sensitized BALB/c mouse assessed as death at 40 mg/kg, po. The series is classed as organism-based. The following applies: in vivo.
The nature of series [15]: Toxicity in anti-DNP IgE sensitized BALB/c mouse assessed as ascites at 40 mg/kg, po. As to conditions: in vivo. The series is classed as organism-based.
A short description of series [16]: Toxicity in anti-DNP IgE sensitized BALB/c mouse assessed as hepatopathy at 40 mg/kg, po. It is filed as organism-based. As to conditions: in vivo.
A short description of series [17]: Toxicity in anti-DNP IgE sensitized BALB/c mouse assessed as splenomegaly at 40 mg/kg, po. The series is classed as organism-based. As to conditions: in vivo.
Series [18] concerns the target Tyrosine-protein kinase SYK (Homo sapiens) (UniProt P43405). Nature of the series: Inhibition of human full length recombinant Syk at 5 nM by radiometric scintillation counting analysis relative to control.
In series [19] the target is Tyrosine-protein kinase JAK1 (Homo sapiens) (UniProt P23458). Nature of the series: Inhibition of human recombinant JAK1 at 5 nM radiometric scintillation counting analysis relative to control.
Chain of Tyrosine-protein kinase JAK1 (Homo sapiens) (P23458 whole entry): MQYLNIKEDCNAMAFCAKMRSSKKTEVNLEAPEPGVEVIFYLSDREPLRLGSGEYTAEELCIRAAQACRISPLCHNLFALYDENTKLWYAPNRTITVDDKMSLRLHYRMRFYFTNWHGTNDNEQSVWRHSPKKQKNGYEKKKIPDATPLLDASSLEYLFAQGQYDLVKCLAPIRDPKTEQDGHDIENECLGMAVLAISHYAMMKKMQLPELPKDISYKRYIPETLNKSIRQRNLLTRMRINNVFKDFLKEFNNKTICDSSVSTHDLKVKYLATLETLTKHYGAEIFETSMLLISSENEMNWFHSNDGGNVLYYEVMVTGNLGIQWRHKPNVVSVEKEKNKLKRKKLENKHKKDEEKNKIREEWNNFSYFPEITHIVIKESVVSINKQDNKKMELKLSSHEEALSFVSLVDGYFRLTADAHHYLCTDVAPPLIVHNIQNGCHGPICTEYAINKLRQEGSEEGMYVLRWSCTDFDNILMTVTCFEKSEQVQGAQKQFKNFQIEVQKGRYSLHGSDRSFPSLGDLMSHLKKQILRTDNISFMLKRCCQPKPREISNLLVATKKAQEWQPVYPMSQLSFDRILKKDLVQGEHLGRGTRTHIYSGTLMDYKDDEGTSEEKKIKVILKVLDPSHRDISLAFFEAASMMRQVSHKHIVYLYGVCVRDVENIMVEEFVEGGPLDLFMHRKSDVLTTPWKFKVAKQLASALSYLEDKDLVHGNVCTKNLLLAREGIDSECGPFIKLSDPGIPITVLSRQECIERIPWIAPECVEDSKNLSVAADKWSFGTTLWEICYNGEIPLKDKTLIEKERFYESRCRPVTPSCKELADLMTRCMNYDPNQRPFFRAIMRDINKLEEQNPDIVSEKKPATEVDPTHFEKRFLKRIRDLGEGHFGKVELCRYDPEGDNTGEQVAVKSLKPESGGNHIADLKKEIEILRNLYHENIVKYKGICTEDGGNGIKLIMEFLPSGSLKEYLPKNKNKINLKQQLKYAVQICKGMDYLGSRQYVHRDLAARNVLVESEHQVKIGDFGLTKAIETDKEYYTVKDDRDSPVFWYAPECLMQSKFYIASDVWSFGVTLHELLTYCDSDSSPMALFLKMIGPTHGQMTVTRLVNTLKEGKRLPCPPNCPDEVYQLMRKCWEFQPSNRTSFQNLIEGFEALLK

Calls of active or inactive are those of the source. No cut-off for these calls is given here.

Chain of Proto-oncogene tyrosine-protein kinase Src (Rattus norvegicus) (Q9WUD9 2-536 limits assumed): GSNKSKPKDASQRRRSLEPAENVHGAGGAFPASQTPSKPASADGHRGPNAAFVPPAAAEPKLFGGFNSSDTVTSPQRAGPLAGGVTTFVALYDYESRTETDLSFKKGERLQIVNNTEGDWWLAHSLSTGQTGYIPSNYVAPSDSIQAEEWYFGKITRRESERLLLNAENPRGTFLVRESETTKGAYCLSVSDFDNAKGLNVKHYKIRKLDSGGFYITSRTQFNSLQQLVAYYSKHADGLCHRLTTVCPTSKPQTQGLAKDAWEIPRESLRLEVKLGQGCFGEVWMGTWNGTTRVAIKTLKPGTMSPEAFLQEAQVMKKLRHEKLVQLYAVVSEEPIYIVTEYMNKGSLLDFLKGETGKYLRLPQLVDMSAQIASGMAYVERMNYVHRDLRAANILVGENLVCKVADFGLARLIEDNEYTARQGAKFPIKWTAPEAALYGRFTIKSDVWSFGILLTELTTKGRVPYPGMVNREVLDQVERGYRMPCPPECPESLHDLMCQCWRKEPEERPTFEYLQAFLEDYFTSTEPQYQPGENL

Turning to `Cc1ccc(C(=O)Nc2cc(C(F)(F)F)cc(C(F)(F)F)c2)cc1C#Cc1cc(-c2cnn(C)c2)cnc1N`, the inhibition at 0.04 µM in the series with RBL-2H3 turned out to be 112%. The inhibition entry in [1] and in series [2] was “Dose-Dependent Effect” throughout. For the same compound, in [3], the Tmax was 2.67 h. The compound also displayed a Cmax in series [4] of 1940 ng/mL. In series [5], this compound gave an exposure AUC(0-t) at 24 h of 21300 ng·h/mL. In series [6], the clearance was found to be 15.2 mL/min/kg. This compound also yielded a bioavailability in series [7] of 99.9%. In addition, the outcome with Mus musculus [8] and with Mus musculus [9] was Active. The Activity entry in [10], in series [11], in series [12], in series [13], in series [14] and in series [15] was “Non-Toxic” throughout. In addition, the Activity entry in series [16] and in [17] was “Non-Toxic” in each case.
`Cc1ccc(C(=O)Nc2ccc(Cl)cc2Cl)cc1C#Cc1cc(-c2cnn(C)c2)cnc1N`: the inhibition is -2% in [18] and 14% in series [19].

These data come from ChEMBL document CHEMBL4837249, “Discovery of Potent Antiallergic Agents Based on an o-Aminopyridinyl Alkynyl Scaffold” (J Med Chem, 2021).
